We go through 15 compounds from PubChem BioAssay AID256 (DTP/NCI, 2004).

Values joined by “and” are separate entries in the source; they are usually repeats but may differ in a detail not shown here. Equal entries are not always repeated. Toxic doses and inconclusive results are not listed. Non-standard residues stand in square brackets, D forms with d. Residues, ends and D or L forms follow the SMILES beside them. ξ: configuration not given here. *: point of attachment. ξF = NC(Cc1ccccc1)C(=O)O; ClAc = O=C(CCl)*

In the test the test system is CD2F1 mice, L1210 leukemia ip, survival T/C. Briefly: NCI In Vivo Anticancer Drug Screen. Data for tumor model L1210 Leukemia (intraperitoneal) in CD2F1 (CDF1) mice. The settings on record: higher = longer survival. On the procedure:
The antitumor activity of compounds was measured in mice bearing transplantable tumors. Survival or tumor size were measured and the results are expressed as the measurement made in the treated group (T) divided by the measurement made in the vehicle treated control group (C). The tumor model used in this assay is L1210 Leukemia (intraperitoneal) in CD2F1 (CDF1) mice

[1] abbreviates: endpoint: mean survival time, dose: 50.0 mg/kg/injection, schedule: Q04DX002 (ip), vehicle: saline with Tween-80.
The mark [2] stands for this setting: endpoint: mean survival time, dose: 100.0 mg/kg/injection, schedule: Q01DX001 (ip), vehicle: saline with Tween-80.
The mark [3] stands for this setting: endpoint: mean survival time, dose: 100.0 mg/kg/injection, schedule: Q04DX002 (ip), vehicle: saline with Tween-80.
Setting [4] is: endpoint: mean survival time, dose: 200.0 mg/kg/injection, schedule: Q01DX001 (ip), vehicle: saline with Tween-80.
Setting [5] is: endpoint: mean survival time, dose: 200.0 mg/kg/injection, schedule: Q04DX002 (ip), vehicle: saline with Tween-80.
[6] abbreviates: endpoint: mean survival time, dose: 25.0 mg/kg/injection, schedule: Q04DX002 (ip), vehicle: saline with Tween-80.
The mark [7] stands for this setting: endpoint: mean survival time, dose: 100.0 mg/kg/injection, schedule: Q01DX009 (ip), vehicle: saline with Tween-80.
The mark [8] stands for this setting: endpoint: mean survival time, dose: 200.0 mg/kg/injection, schedule: Q01DX009 (ip), vehicle: saline with Tween-80.
Setting [9] is: endpoint: mean survival time, dose: 400.0 mg/kg/injection, schedule: Q01DX009 (ip), vehicle: saline with Tween-80.
The mark [10] stands for this setting: endpoint: mean survival time, dose: 400.0 mg/kg/injection, schedule: Q01DX001 (ip), vehicle: saline with Tween-80.

For `N#CCCCCCCn1cnc2c(N)ncnc21`, the T/C runs as follows: under setting [1], 102 % of control; under setting [2], 97 % of control; under setting [3], 105 % of control; under setting [4], 97 % of control; under setting [5], 90 % of control.

On to `CN(C)P1(=O)OCC(C(C)(C)C)CO1` (stereo not drawn), for which the T/C is, setting by setting: under setting [6], 101 % of control and 91 % of control; under setting [1], 97 % of control and 94 % of control; under setting [3], 86 % of control and 94 % of control and 100 % of control.

For `CSc1ncnc2c1cnn2C1OC(COC(C)=O)C(OC(C)=O)C1OC(C)=O` (stereo not drawn), the T/C was 101 % of control (endpoint: median survival time, dose: 9.0 mg/kg/injection, schedule: Q01DX005 (ip), vehicle: distilled water + Tween-80); 100 % of control (endpoint: median survival time, dose: 9.0 mg/kg/injection, schedule: Q01DX009 (ip), vehicle: distilled water + Tween-80); 98 % of control (endpoint: median survival time, dose: 18.0 mg/kg/injection, schedule: Q01DX005 (ip), vehicle: distilled water + Tween-80); 101 % of control (endpoint: median survival time, dose: 18.0 mg/kg/injection, schedule: Q01DX009 (ip), vehicle: distilled water + Tween-80); 108 % of control (endpoint: median survival time, dose: 36.0 mg/kg/injection, schedule: Q01DX005 (ip), vehicle: distilled water + Tween-80); 100 % of control (endpoint: median survival time, dose: 36.0 mg/kg/injection, schedule: Q01DX009 (ip), vehicle: distilled water + Tween-80). The T/C was 107 % of control (endpoint: median survival time, dose: 72.0 mg/kg/injection, schedule: Q01DX009 (ip), vehicle: distilled water + Tween-80); 118 % of control (endpoint: median survival time, dose: 144.0 mg/kg/injection, schedule: Q01DX005 (ip), vehicle: distilled water + Tween-80); 113 % of control (endpoint: median survival time, dose: 144.0 mg/kg/injection, schedule: Q01DX009 (ip), vehicle: distilled water + Tween-80).

Turning to `O=C(CCl)NCC(=O)NC(Cc1ccccc1)C(=O)O` (stereo not drawn) (ClAc-Gly-[ξF]-OH), the T/C was 98 % of control (endpoint: mean survival time, dose: 100.0 mg/kg/injection, schedule: Q04DX003 (ip), vehicle: saline with Tween-80); 96 % of control (endpoint: mean survival time, dose: 200.0 mg/kg/injection, schedule: Q04DX003 (ip), vehicle: saline with Tween-80); 96 % of control (endpoint: mean survival time, dose: 400.0 mg/kg/injection, schedule: Q04DX003 (ip), vehicle: saline with Tween-80).

For `OC(CC(O)(C(F)(F)F)C(F)(F)F)CC(O)(C(F)(F)F)C(F)(F)F`, the T/C reads like this: (endpoint: mean survival time, dose: 6.25 mg/kg/injection, schedule: Q01DX009 (ip), vehicle: saline with Tween-80) 95 % of control; (endpoint: mean survival time, dose: 12.5 mg/kg/injection, schedule: Q01DX009 (ip), vehicle: saline with Tween-80) 92 % of control; (endpoint: mean survival time, dose: 25.0 mg/kg/injection, schedule: Q01DX009 (ip), vehicle: saline with Tween-80) 90 % of control.

As to `Cc1ccc(Sc2cccc3c2C(=O)c2c(Sc4ccc(C)cc4)cccc2C3=O)cc1`, the T/C reads like this: under setting [7], 93 % of control; under setting [8], 86 % of control.

Consider `CCOc1cc2ccc3c4cc(OC)c(OC)cc4c[n+](C)c3c2cc1OCC`, for which the T/C runs as follows: under setting [6], 107 % of control; under setting [1], 111 % of control; under setting [3], 103 % of control.

Take `CC1=C(N)C(=O)c2c(COC(N)=O)c3n(c2C1=O)C[C@H]1N[C@@H]31`: the T/C is 105 % of control (endpoint: mean survival time, dose: 3.0 mg/kg/injection, schedule: Q01DX001 (ip), vehicle: distilled water + Tween-80); 100 % of control (endpoint: mean survival time, dose: 6.0 mg/kg/injection, schedule: Q01DX001 (ip), vehicle: distilled water + Tween-80); 100 % of control (endpoint: mean survival time, dose: 12.0 mg/kg/injection, schedule: Q01DX001 (ip), vehicle: distilled water + Tween-80); 100 % of control (endpoint: mean survival time, dose: 24.0 mg/kg/injection, schedule: Q01DX001 (ip), vehicle: distilled water + Tween-80); 94 % of control (endpoint: mean survival time, dose: 48.0 mg/kg/injection, schedule: Q01DX001 (ip), vehicle: distilled water + Tween-80).

`COC(=O)C1C=Cc2ccccc21` (stereo not drawn): the T/C was 95 % of control under setting [7], 95 % of control under setting [8] and 104 % of control under setting [9].

With `O=C1c2ccccc2C(=O)C1c1cc2ccccc2cn1`, the T/C was 91 % of control under setting [1]; 87 % of control under setting [2]; 95 % of control under setting [3]; 91 % of control under setting [4]; 91 % of control under setting [5].

Turning to `OC12CCCCC1(O)CCCC2` (stereo not drawn), the T/C runs as follows: under setting [2], 100 % of control; under setting [7], 102 % of control; under setting [4], 97 % of control; under setting [8], 102 % of control; under setting [10], 97 % of control; under setting [9], 102 % of control.

Turning to `CN(C)C1C(c2ccccc2)S(=O)(=O)C1(C)C` (stereo not drawn), the T/C (endpoint: mean survival time, dose: 100.0 mg/kg/injection, schedule: Q01DX001 (ip), vehicle: saline) was 100 % of control; the T/C (endpoint: mean survival time, dose: 100.0 mg/kg/injection, schedule: Q04DX003 (ip), vehicle: saline) was 96 % of control; the T/C (endpoint: mean survival time, dose: 200.0 mg/kg/injection, schedule: Q01DX001 (ip), vehicle: saline) was 100 % of control; the T/C (endpoint: mean survival time, dose: 200.0 mg/kg/injection, schedule: Q04DX003 (ip), vehicle: saline) was 101 % of control; the T/C (endpoint: mean survival time, dose: 400.0 mg/kg/injection, schedule: Q01DX001 (ip), vehicle: saline) is 100 % of control; the T/C (endpoint: mean survival time, dose: 400.0 mg/kg/injection, schedule: Q04DX003 (ip), vehicle: saline) is 97 % of control.

Turning to `CC[C@H]1CN2CCc3cc(OC)c(OC)cc3[C@@H]2C[C@@H]1C[C@H]1NCCc2cc(OC)c(OC)cc21`, the T/C (endpoint: mean survival time, dose: 2.0 mg/kg/injection, schedule: Q01DX007 (ip), vehicle: Klucel (hydroxypropylcellulose) (HPC)) was 107 % of control; the T/C (endpoint: mean survival time, dose: 2.0 mg/kg/injection, schedule: Q01DX009 (ip), vehicle: Klucel (hydroxypropylcellulose) (HPC)) was 108 % of control; the T/C (endpoint: mean survival time, dose: 2.0 mg/kg/injection, schedule: Q02DX005 (ip), vehicle: saline) was 93 % of control and 102 % of control; the T/C (endpoint: mean survival time, dose: 2.0 mg/kg/injection, schedule: Q03DX003 (ip), vehicle: Klucel (hydroxypropylcellulose) (HPC)) was 110 % of control; the T/C (endpoint: mean survival time, dose: 2.0 mg/kg/injection, schedule: Q04DX003 (ip), vehicle: Klucel (hydroxypropylcellulose) (HPC)) was 104 % of control; the T/C (endpoint: mean survival time, dose: 4.0 mg/kg/injection, schedule: Q01DX007 (ip), vehicle: Klucel (hydroxypropylcellulose) (HPC)) was 118 % of control. Further, the T/C (endpoint: mean survival time, dose: 4.0 mg/kg/injection, schedule: Q01DX009 (ip), vehicle: Klucel (hydroxypropylcellulose) (HPC)) is 122 % of control; the T/C (endpoint: mean survival time, dose: 4.0 mg/kg/injection, schedule: Q02DX005 (ip), vehicle: saline) was 104 % of control; the T/C (endpoint: mean survival time, dose: 4.0 mg/kg/injection, schedule: Q03DX003 (ip), vehicle: Klucel (hydroxypropylcellulose) (HPC)) was 106 % of control; the T/C (endpoint: mean survival time, dose: 4.0 mg/kg/injection, schedule: Q04DX003 (ip), vehicle: Klucel (hydroxypropylcellulose) (HPC)) is 104 % of control; the T/C (endpoint: mean survival time, dose: 8.0 mg/kg/injection, schedule: Q01DX007 (ip), vehicle: Klucel (hydroxypropylcellulose) (HPC)) was 105 % of control; the T/C (endpoint: mean survival time, dose: 8.0 mg/kg/injection, schedule: Q01DX009 (ip), vehicle: Klucel (hydroxypropylcellulose) (HPC)) was 101 % of control. Besides, the T/C is, setting by setting: (endpoint: mean survival time, dose: 8.0 mg/kg/injection, schedule: Q03DX003 (ip), vehicle: Klucel (hydroxypropylcellulose) (HPC)) 110 % of control; (endpoint: mean survival time, dose: 8.0 mg/kg/injection, schedule: Q04DX003 (ip), vehicle: Klucel (hydroxypropylcellulose) (HPC)) 110 % of control; (endpoint: mean survival time, dose: 25.0 mg/kg/injection, schedule: Q04DX003 (ip), vehicle: saline with Tween-80) 164 % of control and 195 % of control; (endpoint: mean survival time, dose: 30.0 mg/kg/injection, schedule: Q04DX003 (ip), vehicle: saline with Tween-80) 124 % of control; (endpoint: mean survival time, dose: 40.0 mg/kg/injection, schedule: Q04DX003 (ip), vehicle: saline with Tween-80) 95 % of control.

For `O=[N+]([O-])/C(=C/C=C/c1ccccc1)c1ccccc1`, the T/C under setting [2] is 101 % of control, the T/C under setting [4] was 103 % of control and the T/C under setting [10] was 91 % of control.

Take `Cc1cc(=O)n2c3c(c4c(cc13)c(CN(C)C)cc(=O)n4C)OC2`: the T/C runs as follows: (endpoint: median survival time, dose: 6.0 mg/kg/injection, schedule: Q01DX009 (ip), vehicle: saline with Tween-80) 110 % of control; (endpoint: median survival time, dose: 12.0 mg/kg/injection, schedule: Q01DX009 (ip), vehicle: saline with Tween-80) 101 % of control; (endpoint: median survival time, dose: 12.5 mg/kg/injection, schedule: Q01DX009 (ip), vehicle: saline with Tween-80) 100 % of control; (endpoint: median survival time, dose: 25.0 mg/kg/injection, schedule: Q01DX009 (ip), vehicle: saline with Tween-80) 119 % of control and 110 % of control; (endpoint: median survival time, dose: 100.0 mg/kg/injection, schedule: Q01DX009 (ip), vehicle: saline with Tween-80) 97 % of control.
